Laboratory results: PMC11013444, “3-NAntC: A Potent Crotoxin B-Derived Peptide against the Triple-Negative MDA-MB-231 Breast Cancer Cell Line” (Molecules, 2024)
In brackets after ≈: the same amount, converted by molar mass. Entries after “also recorded” stand apart in the source; their conditions may differ. Like-named read-outs stand apart in the source and are kept apart here. Where no end group is shown, it is not given here.

Tests used:
[1] = tested on: HDFa cells; assay: cells; format: cell-based, human
Protocol: (§1) MCF-7 (Luminal breast cancer), MDA-MB-231 (TNBC), and MCF10A (non-tumor mammary gland epithelial cells) were purchased from the Rio de Janeiro Cell Bank (BCRJ, Rio de Janeiro, RJ, Brazil). HMEC (Primary Mammary Epithelial Cells) and HDFa (Human Dermal Fibroblasts) cell lines were purchased from Gibco (Waltham, MA, USA). MCF-7 and MDA-MB-231 were cultured in an RPMI 1640 medium supplemented with 10% heat-inactivated FBS, 1% glutamine, and 1% antibiotic/antimycotic solution. MCF10A and HMEC were cultured in MEBM medium supplemented with 100 ng/mL cholera toxin, 2.5 mM L-glutamine, 5% horse serum, 10 µg/mL human insulin, 0.5 µg/mL hydrocortisone, and 10 ng/mL EGF. All cells used in this study were incubated at 37 °C under 5% CO2 and checked for authenticity through polymerase chain reaction (PCR) followed by fragment analysis of eight highly polymorphic microsatellite loci (short tandem repeat—STR) plus gender determination with score ≥ 80%.
(§2) Stock solutions of Peptides 1 to 12, doxorubicin, and cisplatin were prepared in PBS (1X). Doxorubicin and cisplatin were stored at −20 °C and the peptide solutions were freshly prepared before each experiment. The final concentration of PBS (1X) in the culture medium was lower than 0.02%. All the negative controls contained this vehicle in the same culturing conditions as previously described.
(§3) Cell viability assay was conducted using the MTT method. For treatments lasting 24 h, the cells were seeded at the density of 2 × 10^4 cells/well into 96-well sterile plates, and for treatments lasting 48 or 72 h, the cell density was 1 × 10^4 cells/well. The following day, cells were treated by applying 200 μL/well of each agent (Peptides 1 to 12, doxorubicin, or cisplatin) at the desired concentration and incubated for the duration of the treatment. Afterward, cells were incubated with 20 μL/well of an MTT solution (5 mg/mL) for 2.5 h. Then, formazan salts were solubilized with 200 μL of DMSO: isopropanol (3:1) and agitated for at least 15 min at room temperature. The absorbance was measured at 570 nm with a spectrophotometer (Molecular devices Spectra Max Plus 384—San Jose, CA, USA), and relative cell viability was calculated. To evaluate the mechanism of cell death, cell cultures were treated with peptides in the presence or absence of 3-methyladenine (3-MA) ([…]), which is an autophagy inhibitor [37]. After treatment, the MTT assay was carried out as previously described.

[2] = tested on: MDA-MB-231 cells; assay: cells; format: cell-based, human; conditions: for IC50: Homo sapiens, MDA-MB-231, MTT, range 0.2–2.0 µg/mL, Figure 4, read-out: IC50 (cell viability)
Protocol: as §1, §2, §3

[3] = tested on: HMEC cells; format: cell-based, human; conditions: 72 h, 1 µg/mL
Protocol: as §1, §2, §3

[4] = tested on: MCF-7 cells; format: cell-based, human; conditions: for cell viability: 1 µg/mL
Protocol: as §1, §2, §3

[5] = tested on: MCF10A cells; format: cell-based, human
Protocol: as §1, §2, §3

[6] = tested on: MDA-MB-231 cells; assay: Cell proliferation assay (BrdU incorporation) in MDA-MB-231; format: cell-based, human; conditions: for IC50 (proliferation): range 0.2–1.0 µg/mL
Protocol: (§4) Cell proliferation was assessed with the BrdU method using the Cell Proliferation ELISA, BrdU (colorimetric) kit from Roche (Basel, Switzerland). Cell seeding and treatments were carried out as presented in Section 4.3. BrdU-labeling (20 μL/well) was added and incubated for 2.5 h. Then, ELISA was performed with an anti-BrdU-POD antibody, followed by washing and substrate solutions. The substrate was then developed for 15 min and the reaction was stopped with HCl (6M). The absorbance was measured at 495 nm with a spectrophotometer (Molecular devices Spectra Max Plus 384—San Jose, CA, USA), and the relative cell proliferation was calculated.

[7] = tested on: HDFa cells; assay: Cell proliferation assay (BrdU incorporation) in HDFa; format: cell-based, human; conditions: 72 hours, range 0.2–1.0 µg/mL
Protocol: as §4

[8] = tested on: MDA-MB-231 cells; assay: LDH release assay; format: cell-based, human; conditions: 0–1.0 µg/mL
Protocol: The CyQUANT LDH Cytotoxicity Assay (Thermo Fisher, Waltham, MA, USA) was employed to determine LDH release as a measure of plasma membrane damage, an important indicator of necrosis and pyroptosis. […] Cell seeding and treatments proceeded as presented in Section 4.3. After treatment incubation, 20 μL of supernatant was transferred to an EIA/RIA plate. The Reaction Mixture (20 μL/well) was added and incubated at room temperature for 30 min in the dark. Afterward, 60 μL/well of the Stop Solution was added and the absorbance of the reaction mixtures was quantified at both 490 nm and 680 nm with a spectrophotometer (Molecular devices Spectra Max Plus 384—San Jose, CA, USA). The absorbance at 680 nm was subtracted from the value at 490 nm, and then relative LDH release was calculated.

[9] = tested on: zebrafish embryos; assay: In vivo zebrafish embryo toxicity study
Protocol: Transgenic Tg(fli1:EGFP)^y1 zebrafish embryos were raised at 28 °C for 48 h in E3 embryo medium 0.2 mM 1-Phenyl-2-Thiourea (PTU). […] Zebrafish embryos obtained at 48 h post fertilization (hpf), n = 20 embryos/group, were subcutaneously injected with the 3-NAntC peptide at 0.0015, 0.015, 0.15, 75, and 150 mg/mL diluted in E3 embryo medium containing 0.003% 1-phenyl-2-thiourea (PTU) and the embryos were maintained at 28.5 °C. Pictures were taken after 24, 48, and 72 h of peptide exposure and the percentage of live animals, as well as the percentage of live animals with malformations, were visually analyzed.

Compound: COc1cccc2c1C(=O)c1c(O)c3c(c(O)c1C2=O)C[C@@](O)(C(=O)CO)C[C@@H]3O[C@H]1C[C@H](N)[C@H](O)[C@H](C)O1 [Doxorubicin, doxorubicin, reference compound]
- IC50 ([1]; Homo sapiens, HDFa, 24 hours, MTT, range 0.2–2.0 µg/mL, Figure 4, read-out: IC50 (cell viability)): 1.12 µg/mL (≈ 2.06 µM)
- IC50 ([2]; 48 hours): 0.21 µg/mL (≈ 0.386 µM)
- IC50 ([2]; 72 hours): 0.17 µg/mL (≈ 0.313 µM)

Compound: CSCC[C@H](N)C(=O)N[C@@H](Cc1ccccc1)C(=O)N[C@@H](Cc1ccc(O)cc1)C(=O)N1CCC[C@H]1C(=O)N[C@@H](CC(=O)O)C(=O)N[C@@H](CO)C(=O)N[C@@H](CCCNC(=N)N)C(=O)N[C@@H](CS)C(=O)N[C@@H](CCCNC(=N)N)C(=O)NCC(=O)N1CCC[C@H]1C(=O)N[C@@H](CO)C(=O)N[C@@H](CCC(=O)O)C(=O)N[C@H](C(=O)O)[C@@H](C)O [Peptide 3-NAntC]
- IC50 (cell viability) ([1]; 72 h): > 2 µg/mL
- cellular viability ([1]; 72 h, 1 µg/mL): higher than 80%
- cell viability ([2]; 24 h, 0.8 µg/mL): 77.5 ± 15.0%
- IC50 (cell viability) ([2]; 48 h): 1.44 µg/mL (≈ 0.875 µM)
- cell viability ([2]; 48 h, 0.8 µg/mL): 60.8 ± 17.9%
- cell viability ([2]; 48 h, 1 µg/mL): 64.6 ± 14.5%
- IC50 (cell viability) ([2]; 72 h): 0.55 µg/mL (≈ 0.334 µM)
- cell viability ([2]; 72 h, 1 µg/mL): 49.0 ± 17.5%
- cell viability [3]: 98.2 ± 13.8%
- IC50 (cell viability) ([4]; 24 h): 2.31 µg/mL (≈ 1.4 µM)
- IC50 (cell viability) ([4]; 48 h): 1.49 µg/mL (≈ 0.905 µM)
- cell viability ([4]; 48 h): 54.7 ± 15.5%
- IC50 (cell viability) ([4]; 72 h): 1.49 µg/mL (≈ 0.905 µM)
- cell viability ([4]; 72 h): 62.9 ± 26.0%
- cell viability ([5]; 24 h, 2.5 µg/mL): 93.4 ± 7.4%
- IC50 (cell viability) ([5]; 48 h): > 20 µg/mL
- cell viability ([5]; 48 h, 2.5 µg/mL): 80.5 ± 5.3%
- cell viability ([5]; 48 h, 20 µg/mL): 65.9 ± 10.3%
- maximum proliferation inhibition ([6]; 0.6 µg/mL, 48 h, mean ± SEM): 71.1 ± 27.1%
- IC50 (proliferation) ([6]; 24h): 0.46 µg/mL (≈ 0.279 µM)
- IC50 (proliferation) ([6]; 48h): 0.46 µg/mL (≈ 0.279 µM)
- IC50 (proliferation) ([6]; 72h): 0.37 µg/mL (≈ 0.225 µM)
- IC50 (proliferation) [7]: > 1 µg/mL
- LDH release ([8]; 24 and 48 h treatments): did not consistently increase LDH release
- LDH release ([8]; 72 h): increase in LDH release
- lethality ([9]; 150 mg/mL, after 48 and 72 h of treatment, n = 20 embryos/group): 45%
- surviving embryos exhibiting malformations ([9]; 150 mg/mL, n = 20 embryos/group): 50–60%
- lethality and non-lethal events (malformations) ([9]; 1.5 to 150 µg/mL and 75 mg/mL, embryos 48 hpf, n = 20 embryos/group, 24, 48, 72 h): no lethal effects; also recorded: did not show lethality or significant non-lethal events (malformations)
- LD50 (dose that kills 50% of the embryos) ([9]; doses up to 150 mg/mL): could not be determined

Compound: AIPFYAFY [Peptide 2]
- IC50 (cell viability) ([2]; 24 h): > 20 µg/mL
- cell viability ([2]; 24 h, 2.5 µg/mL): 81.6 ± 5.0%
- IC50 (cell viability) ([2]; 48 h): > 20 µg/mL
- cell viability ([2]; 48 h, 2.5 µg/mL): 85.0 ± 7.9%
- IC50 (cell viability) ([5]; 48 h): > 20 µg/mL
- cell viability ([5]; 48 h, 2.5 µg/mL): 85.7 ± 11.2%

Compound: CC[C@H](C)[C@H](NC(=O)[C@H](CCSC)NC(=O)[C@H](CCCCN)NC(=O)[C@H](CC(N)=O)NC(=O)[C@H](Cc1ccccc1)NC(=O)[C@H](CCC(N)=O)NC(=O)[C@H](CC(C)C)NC(=O)[C@H](CC(C)C)NC(=O)[C@@H](N)Cc1c[nH]cn1)C(=O)N[C@@H](CCCCN)C(=O)N[C@@H](Cc1ccccc1)C(=O)N[C@@H](CCC(=O)O)C(=O)N[C@H](C(=O)N[C@@H](CCCNC(=N)N)C(=O)N[C@@H](CCCCN)C(=O)N[C@@H](CC(N)=O)C(=O)N[C@@H](C)C(=O)N[C@H](C(=O)N1CCC[C@H]1C(=O)N[C@@H](Cc1ccccc1)C(=O)O)[C@@H](C)CC)[C@@H](C)O [Peptide 1]
- cell viability ([2]; 24 h, 2.5 µg/mL): 94.4 ± 4.6%
- cell viability ([2]; 48 h, 2.5 µg/mL): 90.7 ± 3.0%
